Molecules are shown by their SMILES. Structures can show the parent of a compound that is named as a salt.

T1 sequence (P49327 whole entry): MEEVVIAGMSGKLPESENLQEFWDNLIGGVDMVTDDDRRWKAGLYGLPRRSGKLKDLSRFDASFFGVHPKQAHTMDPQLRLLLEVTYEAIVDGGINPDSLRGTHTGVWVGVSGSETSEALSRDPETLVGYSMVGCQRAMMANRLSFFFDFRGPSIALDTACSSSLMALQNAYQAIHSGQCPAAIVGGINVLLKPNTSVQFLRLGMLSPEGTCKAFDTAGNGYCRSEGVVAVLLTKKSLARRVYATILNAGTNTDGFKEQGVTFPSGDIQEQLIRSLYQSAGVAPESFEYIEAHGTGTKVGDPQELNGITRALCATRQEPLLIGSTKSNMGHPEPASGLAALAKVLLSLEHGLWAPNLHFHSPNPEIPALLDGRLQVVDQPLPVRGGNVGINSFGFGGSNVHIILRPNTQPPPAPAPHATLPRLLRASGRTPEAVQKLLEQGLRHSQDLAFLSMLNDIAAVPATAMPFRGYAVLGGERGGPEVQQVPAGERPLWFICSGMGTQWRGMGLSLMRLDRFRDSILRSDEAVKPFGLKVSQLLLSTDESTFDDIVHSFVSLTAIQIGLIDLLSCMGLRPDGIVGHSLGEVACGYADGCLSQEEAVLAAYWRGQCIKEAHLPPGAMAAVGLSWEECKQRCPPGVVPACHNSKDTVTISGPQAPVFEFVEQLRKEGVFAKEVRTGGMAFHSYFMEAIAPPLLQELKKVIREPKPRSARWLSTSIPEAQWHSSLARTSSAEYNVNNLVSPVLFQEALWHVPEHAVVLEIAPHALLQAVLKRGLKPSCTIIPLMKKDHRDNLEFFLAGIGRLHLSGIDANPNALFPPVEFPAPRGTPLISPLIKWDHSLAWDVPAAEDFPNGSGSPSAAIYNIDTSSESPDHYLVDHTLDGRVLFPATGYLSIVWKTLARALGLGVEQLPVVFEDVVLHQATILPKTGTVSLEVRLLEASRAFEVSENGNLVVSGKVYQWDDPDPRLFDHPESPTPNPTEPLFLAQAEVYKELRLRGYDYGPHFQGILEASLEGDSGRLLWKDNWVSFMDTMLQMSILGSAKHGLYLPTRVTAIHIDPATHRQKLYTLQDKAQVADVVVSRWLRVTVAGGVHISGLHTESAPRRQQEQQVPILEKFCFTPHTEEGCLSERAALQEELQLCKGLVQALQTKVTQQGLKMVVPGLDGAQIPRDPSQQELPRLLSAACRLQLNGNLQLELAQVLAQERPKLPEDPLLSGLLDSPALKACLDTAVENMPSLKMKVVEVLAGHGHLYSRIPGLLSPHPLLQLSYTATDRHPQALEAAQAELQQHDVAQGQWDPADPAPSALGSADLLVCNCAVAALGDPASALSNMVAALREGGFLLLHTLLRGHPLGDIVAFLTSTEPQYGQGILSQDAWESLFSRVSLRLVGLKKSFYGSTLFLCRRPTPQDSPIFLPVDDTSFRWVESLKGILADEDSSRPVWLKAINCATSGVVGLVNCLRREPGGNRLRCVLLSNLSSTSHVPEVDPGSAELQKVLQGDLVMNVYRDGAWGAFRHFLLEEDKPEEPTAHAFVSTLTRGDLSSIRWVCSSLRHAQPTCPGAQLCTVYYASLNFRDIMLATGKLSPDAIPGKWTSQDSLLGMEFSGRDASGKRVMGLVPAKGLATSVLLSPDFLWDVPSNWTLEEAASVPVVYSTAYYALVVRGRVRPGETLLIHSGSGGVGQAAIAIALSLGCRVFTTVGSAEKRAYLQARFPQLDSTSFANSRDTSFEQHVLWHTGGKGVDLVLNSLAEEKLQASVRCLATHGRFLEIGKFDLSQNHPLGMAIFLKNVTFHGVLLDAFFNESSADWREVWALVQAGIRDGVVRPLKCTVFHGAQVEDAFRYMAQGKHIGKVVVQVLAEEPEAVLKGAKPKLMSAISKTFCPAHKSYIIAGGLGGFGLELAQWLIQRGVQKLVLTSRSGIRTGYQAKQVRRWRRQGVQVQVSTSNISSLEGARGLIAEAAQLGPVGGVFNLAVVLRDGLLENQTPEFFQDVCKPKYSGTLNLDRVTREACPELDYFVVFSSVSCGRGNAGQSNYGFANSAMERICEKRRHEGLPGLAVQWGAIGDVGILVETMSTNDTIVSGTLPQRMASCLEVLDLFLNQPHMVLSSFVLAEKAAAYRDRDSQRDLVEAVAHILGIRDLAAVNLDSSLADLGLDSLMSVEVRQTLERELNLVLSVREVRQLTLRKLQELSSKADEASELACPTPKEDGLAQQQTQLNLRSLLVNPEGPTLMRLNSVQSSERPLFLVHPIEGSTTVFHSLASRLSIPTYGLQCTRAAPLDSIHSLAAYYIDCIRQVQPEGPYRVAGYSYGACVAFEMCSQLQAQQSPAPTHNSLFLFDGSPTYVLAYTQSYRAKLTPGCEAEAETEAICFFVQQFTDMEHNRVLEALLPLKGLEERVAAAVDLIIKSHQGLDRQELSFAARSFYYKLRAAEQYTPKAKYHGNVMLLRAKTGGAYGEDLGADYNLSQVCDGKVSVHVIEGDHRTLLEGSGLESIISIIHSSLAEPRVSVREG

The first assay concerns the target T1, recombinant human baculovirus-expressed GST-tagged FASN (Homo sapiens, UniProt P49327).
T1 construct: GST
The assay can be described thus: FASN enzyme activity assay, fluorescence-based detection of CoA with CPM. In kind it is biochemical. Particulars: 5 nM FASN, 150 μM NADPH, 10 μM acetyl-CoA, 25 μM malonyl-CoA, 90 minutes incubation; read-out: IC50 data for Additional Compounds of Formulae I-V(a): Activity. A digest of the protocol:
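CoA product reacted with thiol-reactive CPM (diluted to 50 μM in 70% ethanol), read at 390/530 nm after 30 min. Preceding reaction: 90 min, 5 nM recombinant GST-FASN, 150 μM NADPH, 10 μM acetyl-CoA, 25 μM malonyl-CoA, pH 7.5 HEPES, 0.5% DMSO. IC50s fitted by nonlinear sigmoidal regression.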
In the case of `Cc1c(-c2ccc(OC3CCN(C(=O)CN(C)C)CC3)cc2)ccc2cccnc12` [Example 614, 2-(Dimethylamino)-1-[4-[4-(8-methyl-7-quinolyl)phenoxy]-1-piperidyl]-ethanone], the IC50 fell in the range of 1000 to 10000 nM.
Regarding `Cc1c(-c2ccc(OC3CCN(C(=O)NOCC(C)C)CC3)cc2)ccc2cccnc12` [Example 544, N-Isobutoxy-4-[4-(8-methyl-7-quinolyl)phenoxy]piperidine-1-carboxamide], the IC50 lay in the range of 1 to 99 nM.
Same read-out and setting: the same measure for `Cc1c(-c2ccc(OC3CCN(C(=O)C4(N)CCC4)CC3)cc2)ccc2cccnc12` [Example 627, (1-Aminocyclobutyl)-[4-[4-(8-methyl-7-quinolyl)phenoxy]-1-piperidyl]-methanone]: 1000 to 10000 nM; for `CCCNC(=O)N1CCC(Oc2ccc(-c3ccc4nccn4c3C)cc2)CC1` [Example 594, 4-[4-(5-Methylimidazo[1,2-a]pyridin-6-yl)phenoxy]-N-propyl-piperidine-1-carboxamide]: 1 to 99 nM; for `Cc1c(-c2ccc(OC3CCN(C(=O)N4CCCCO4)CC3)cc2)ccc2cccnc12` [Example 558, [4-[4-(8-Methyl-7-quinolyl)phenoxy]-1-piperidyl]-(oxazinan-2-yl)methanone]: 1000 to 10000 nM.

The assay is the same for the next values; noted with them: 5 nM FASN, 150 μM NADPH, 10 μM acetyl-CoA, 25 μM malonyl-CoA, 90 minutes incubation; read-out: IC50 data for Compounds of Formulae I-V/V(a): Activity.
Regarding `NC(=O)c1c(-c2ccc(OC3CCN(C(=O)[C@H]4CCCO4)CC3)cc2)ccc2cccnc12` [Example 336, 7-[4-[[1-[(2R)-Tetrahydrofuran-2-carbonyl]-4 piperidyl]oxy]phenyl]quinoline-8-carboxamide], the IC50 lay in the range of 100 to 999 nM.
On the same count and under the same terms, for `COc1nccc2cc(-c3ccc(OC4CCN(C(=O)C5CC5)CC4)cc3)ccc12` [Example 435, Cyclopropyl-{4-[4-(1-methoxyisoquinolin-6-yl)-phenoxy]-piperidin-1-yl}-methanone] the value was 100 to 999 nM; for `CC(C)(C)C(=O)N1CCC(Oc2ccc(-c3cnc4ccccc4c3)cc2)CC1` [Example 114, 2,2-Dimethyl-1-[4-(4-quinolin-3-yl-phenoxy)-piperidin-1-yl]-propan-1-one, HCl], 100 to 999 nM.
On to `COCCOc1c(-c2ccc(OC3CCN(C(=O)[C@H]4CCCO4)CC3)cc2)ccc2cccnc12` [Example 186, [4-[4-[8-(2-Methoxyethoxy)-7-quinolyl]phenoxy]-1-piperidyl]-[(2R)-tetrahydrofuran-2-yl]methanone, HCl], for which the IC50 was in the range of 1 to 99 nM.
On the same count and under the same terms, for `CCC(=O)N1CCC(Oc2ccc(-c3ccc4cccnc4c3OCCN3CCOCC3)cc2)CC1` [Example 171, 1-(4-{4-[8-(2-Morpholin-4-yl-ethoxy)-quinolin-7-yl]-phenoxy}-piperidin-1-yl)-propan-1-one, 2HCl] the value was 1000 to 10000 nM; for `CCC(=O)N1CCC(Oc2ccc(-c3cnc4cc(C)ccc4c3)cc2)CC1` [Example 63, 1-{4-[4-(7-Methylquinolin-3-yl)-phenoxy]-piperidin-1-yl}-propan-1-one], 100 to 999 nM; for `CCC(=O)N1CCC(Oc2ccc(-c3ccc4c(OC)nccc4c3)cc2)CC1` [Example 433], 100 to 999 nM.
On to `O=C(C1CCC1)N1CCC(Oc2ccc(-c3ccc4ccccc4n3)cc2)CC1` [Example 41, Cyclobutyl-[4-(4-quinolin-2-yl-phenoxy)-piperidin-1-yl]-methanone], for which the IC50 lay in the range of 100 to 999 nM.
Turning to `CCC(=O)N1CCC(Oc2ccc(-c3cnc4cc(OC)ccc4c3)cc2)CC1` [Example 35, 1-{4-[4-(7-Methoxyquinolin-3-yl)-phenoxy]-piperidin-1-yl}-propan-1-one], the IC50 was 1 to 99 nM.
As for `Cc1cc(-c2ccc(OC3CCN(C(=O)[C@H]4CCCO4)CC3)cc2)cc2ncccc12` [Example 352, (R)-(4-(4-(5-Methylquinolin-7-yl)phenoxy)piperidin-1-yl)(tetrahydrofuran-2-yl)methanone], the IC50 is 1 to 99 nM.
Turning to `CC(C)C(=O)N1CCC(Oc2ccc(-c3cnc4ccccc4c3)cc2Cl)CC1` [Example 192, 1-[4-(2-Chloro-4-quinolin-3-yl-phenoxy)-piperidin-1-yl]-2-methyl-propan-1-one], the IC50 lay within 1000 to 10000 nM.
As to `Cc1c(-c2ccc(OC3CCN(C(=O)C4CC4)C(C)C3)cc2)ccc2cccnc12` (racemic) [Example 365, Cyclopropyl-{2-methyl-4-[4-(8-methylquinolin-7-yl)-phenoxy]-piperidin-1-yl}-methanone HCl], the IC50 is 1000 to 10000 nM.
On to `CCC(=O)N1CCC(Oc2ccc(-c3cc(OC)c4ccnn4c3)cc2)CC1` [Example 410, 1-{4-[4-(4-Methoxypyrazolo[1,5-a]pyridin-6-yl)-phenoxy]-piperidin-1-yl}-propan-1-one, HCl], for which the IC50 lay in the range of 100 to 999 nM.
Still for that read-out and setting: the same measure for `CCC(=O)N1CCC(Oc2ccc(-c3cn4ccnc4cc3C)cc2)CC1` [Example 293, 1-{4-[4-(7-Methylimidazo[1,2-a]pyridin-6-yl)-phenoxy]-piperidin-1-yl}-propan-1-one]: 1000 to 10000 nM; for `O=C1OCCN1C(=O)N1CCC(Oc2ccc(-c3cnc4ccccc4c3)cc2)CC1` [Example 241, 3-[4-(4-Quinolin-3-yl-phenoxy)-piperidine-1-carbonyl]-oxazolidin-2-one]: 1000 to 10000 nM.
For the compound `CC(C)C(=O)N1CCC(S(=O)(=O)c2ccc(-c3ccc4cccnc4c3)cc2)CC1` [Example 512, 2-Methyl-1-[4-(4-quinolin-7-yl-benzenesulfonyl)-piperidin-1-yl]-propan-1-one], the IC50 lay within 1000 to 10000 nM.
For the compound `CCC(=O)N1CCC(Oc2ccc(-c3ccc4cnccc4c3)cc2)CC1` [Example 1, 1-[4-(4-Isoquinolin-6-yl-phenoxy)-piperidin-1-yl]-propan-1-one], the IC50 was in the range of 1 to 99 nM.
Turning to `Cc1c(-c2ccc(OC3CCN(C(=O)[C@H]4CCCO4)CC3)cc2)ccc2nccn12` [Example 285, {4-[4-(5-Methylimidazo[1,2-a]pyridin-6-yl)-phenoxy]-piperidin-1-yl}-(R)-tetrahydrofuran-2-yl-methanone], the IC50 fell in the range of 1 to 99 nM.
Same read-out and setting: for `COc1ccc2cc(-c3ccc(OC4CCN(C(=O)C5CC5)CC4)cc3)cnc2c1` [Example 34, Cyclopropyl-{4-[4-(7-methoxyquinolin-3-yl)-phenoxy]-piperidin-1-yl}-methanone] the value was 1 to 99 nM.
The same measure, in the same setting: for `CS(=O)(=O)CC(=O)N1CCC(Oc2ccc(-c3cnc4ccccc4c3)cc2)CC1` [Example 117, 2-Methanesulfonyl-1-[4-(4-quinolin-3-yl-phenoxy)-piperidin-1-yl]-ethanone, HCl] the value was 1000 to 10000 nM; for `CCC(=O)N1CCC(Oc2ccc(-c3cc4ccccc4cn3)cc2)CC1` [Example 43, 1-[4-(4-Isoquinolin-3-yl-phenoxy)-piperidin-1-yl]-propan-1-one], 1 to 99 nM.
In the case of `Cc1ccc2ncc(-c3ccc(OC4CCN(C(=O)[C@H]5CCCO5)CC4)cc3)cc2c1` [Example 485, {4-[4-(6-Methylquinolin-3-yl)-phenoxy]-piperidin-1-yl}-(R)-tetrahydro-furan-2-yl-methanone, HCl], the IC50 lay within 1 to 99 nM.
For `O=C(C1CCCCO1)N1CCC(Oc2ccc(-c3cnc4ccccc4c3)cc2)CC1` (centres unmarked) [Example 106, [4-(4-Quinolin-3-yl-phenoxy)-piperidin-1-yl]-(tetrahydropyran-2-yl)-methanone, 2HCl], the IC50 lay within 100 to 999 nM.
Consider `Cc1ccc2cc(-c3ccc(OC4CCN(C(=O)N5CCCO5)CC4)cc3)cnc2c1` [Example 80, Isoxazolidin-2-yl-{4-[4-(7-methylquinolin-3-yl)-phenoxy]-piperidin-1-yl}-methanone], for which the IC50 was in the range of 1 to 99 nM.
Still for that read-out and setting: the same measure for `Cc1c(-c2ccc(OC3CCN(C(=O)C4CCC4)CC3)cc2)cccc1-c1ccccn1` [Example 408, Cyclobutyl-[4-(2′-methyl-3′-pyridin-2-yl-biphenyl-4-yloxy)-piperidin-1-yl]-methanone, TFA salt]: 1000 to 10000 nM.
The same measure, in the same setting: the same measure for `CCC(=O)N1CCC(Oc2ccc(-c3cnc4ccccc4c3C)cc2)CC1` [Example 60]: 1 to 99 nM; for `O=C([C@H]1CCCO1)N1CCC(Oc2ccc(-c3ccc4nccn4c3)cc2)CC1` [Example 318, [4-(4-Imidazo[1,2-a]pyridin-6-yl-phenoxy)-piperidin-1-yl]-(R)-tetrahydro-furan-2-yl-methanone; compound with trifluoroacetic acid]: 1 to 99 nM; for `CCC(=O)N1CCC(Oc2ccc(-c3ccc4c(c3)OCCO4)cc2)CC1` [Example 502, 1-{4-[4-(2,3-Dihydro-1,4-benzodioxin-6-yl)-phenoxy]-piperidin-1-yl}-propan-1-one]: 1000 to 10000 nM.
On the same count and under the same terms, for `O=C(C1CC1)N1CCC(Oc2ccc(-c3ccc4cccnc4c3OCCN3CCOCC3)cc2)CC1` [Example 172, Cyclopropyl-(4-{4-[8-(2-morpholin-4-yl-ethoxy)-quinolin-7-yl]-phenoxyl}-piperidin-1-yl)-methanone, 2HCl] the value was 1000 to 10000 nM; for `O=C(N1CCC(Oc2ccc(-c3cnc4ccccc4c3)cc2)CC1)N1CCCO1` [Example 73, Isoxazolidin-2-yl-[4-(4-quinolin-3-yl-phenoxy)-piperidin-1-yl]-methanone], 1 to 99 nM.
In the case of `CCC(=O)N1CCC(Oc2ccc(-c3cccc(-c4ccccn4)c3F)cc2)CC1` [Example 395, 1-[4-(2′-Fluoro-3′-pyridin-2-yl-biphenyl-4-yloxy)-piperidin-1-yl]-propan-1-one], the IC50 was 1000 to 10000 nM.
Still for that read-out and setting: the same measure for `CC(C)C(=O)N1CCC(Oc2ccc(-c3ccc4cccnc4c3)cc2)CC1` [Example 3, 2-Methyl-1-[4-(4-quinolin-7-yl-phenoxy)-piperidin-1-yl]-propan-1-one]: 100 to 999 nM.
On to `O=C([C@H]1CCCO1)N1CCC(Oc2ccc(-c3cnc4cc(F)ccc4c3)cc2)CC1` [Example 479, {4-[4-(7-Fluoroquinolin-3-yl)-phenoxy]-piperidin-1-yl}-(R)-tetrahydro-furan-2-yl-methanone], for which the IC50 lay in the range of 1 to 99 nM.

The record behind these values is patent US9902696B2, “1,4-substituted piperidine derivatives” (Cephalon, Inc., priority 2015, dated 2018).
